According to patent US20260232662A1, “MIR-124 INDUCER, AND PREPARATION METHOD THEREFOR AND USE THEREOF” (NANJING SYNNOCARE PHARMACEUTICAL TECHNOLOGY CO., LTD., priority 2023, published 2026):

Test system: miR-124
Experiment: Induction of miR-124 expression in PBMC cells (qPCR)
Format: cell-based
Conditions: Homo sapiens, 72 h, 0.1 μM compound, human PBMCs stimulated with PMA/ionomycin, miR-191 reference gene, read-out: miR-124 expression, Fold change vs DMSO
Protocol: This study evaluated the ability of the compound of the present invention to influence miR-124 transcriptional activity in vitro. The experiment analyzed miR-124 expression in human PBMCs (Sailybio) using quantitative PCR (qPCR).
Thawed human PBMCs (1 mL) were added to 19 mL of culture medium (RPMI1640+10% hFBS+1‰ 2-mercaptoethanol) and the PBMCs were incubated in a cell culture incubator for 30 minutes. The PBMCs were collected and the cells (3.0*10^6 cells/well/3 mL) were resuspended in medium containing PMA (10 ng/mL; Invivogen) and ionomycin (200 ng/mL; Invivogen). The cells were incubated in a 6-well plate for 48 hours. Diluted compound was added to the cells to achieve a final concentration of 0.1 μM. After 72 hours, the samples were centrifuged and the cells were collected.
Total miRNA was extracted from the cells using the MiPure Cell/Tissue miRNA Kit (Vazyme) according to the manufacturer's instructions, followed by purification. The purified samples were treated with genomic DNA elimination buffer, and reverse transcription was performed using a GeneAmp PCR System. The resulting cDNA was subjected to quantitative real-time PCR (qPCR) analysis on a QuantStudio™ 7 Flex Real-Time PCR System. Data analysis was performed using the QuantStudio 7 software with default settings to automatically determine Ct values, and the results were exported. In this assay, miR-191 was used as the reference gene, and the DMSO-treated group served as the control. The relative expression of miR-124 was calculated using the following formula: […]

Row | Structure (SMILES) | fold induction at 0.1 µM
1 | Fc1cc(Cl)cc2c1nc(Nc1ccc(C(F)(F)F)cc1)c1nccn12 [Compound 58] | 27.3
2 | FC1(F)Oc2ccc(Nc3nc4ccc(Cl)cc4n4ccnc34)cc2O1 [Compound B100, 8-chloro-N-(2,2-difluorobenzo [d][1,3]dihydroxy-5-yl) imidazolo[1,2-a] quinoxalin-4-amine] | 19.6
3 | Fc1cc(NC2=Nc3c(Br)cccc3N3CCN=C23)ccc1C(F)(F)F [Compound 81] | 15.3
4 | Fc1cc(Cl)cc2nc(Nc3ccc(OC(F)(F)F)c(Cl)c3)c3nccn3c12 [Compound B89, 7-chloro-9-fluoro-N-(3-chloro-4-(trifluoromethoxy)phenyl) imidazolo[1,2-a] quinoxalin-4-amine] | 22.3
5 | FC(F)(F)Oc1ccc(NC2=Nc3c(Cl)cccc3N3CCN=C23)cc1 [Compound 9] | 26.9
6 | Fc1cc(Cl)cc2c1N1CCN=C1C(Nc1ccc(C(F)(F)F)cc1)=N2 [Compound B133, 7-chloro-9-fluoro-N-(4-(trifluoromethyl)phenyl)-1,2-dihydroimidazo[1,2-a] quinoxalin-4-amine] | 26.3
7 | Fc1cccc2nc(Nc3ccc(C(F)(F)F)c(Cl)c3)c3nccn3c12 [Compound B80, 9-fluoro-N-(3-chloro-4-(trifluoromethyl)phenyl) imidazolo[1,2-a] quinoxalin-4-amine] | 17.2
8 | Fc1cc(Nc2nc3cc(Cl)cc(Cl)c3n3ccnc23)ccc1OC(F)(F)F [Compound B94, 7,9-dichloro-N-(3-fluoro-4-(trifluoromethoxy)phenyl) imidazolo[1,2-a] quinoxalin-4-amine] | 26.4
9 | Cn1c(=O)c(Nc2ccc(OC(F)(F)F)cc2)nc2c(F)cc(Cl)cc21 [Compound 13] | 20.9
10 | Fc1cc(Cl)cc2nc(Nc3ccc(C(F)(F)F)c(Cl)c3)c3nccn3c12 [Compound B92, 7-chloro-9-fluoro-N-(3-chloro-4-(trifluoromethyl)phenyl) imidazolo[1,2-a] quinoxalin-4-amine] | 27.1
11 | FC(F)(F)c1ccc(NC2=Nc3c(Br)cccc3N3CCN=C23)cc1 [Compound 80] | 19.8
12 | FC(F)(F)Oc1ccc(NC2=Nc3cc(Cl)ccc3N3CCN=C23)cc1Cl [Compound B150, 7-chloro-N-(3-chloro-4-(trifluoromethoxy)phenyl)-1,2-dihydroimidazo[1,2-a] quinoxalin-4-amine] | 26.4
13 | FC(F)(F)Oc1ccc(NC2=Nc3c(Cl)cc(Cl)cc3N3CCN=C23)cc1 [Compound 85] | 10.4
14 | FC(F)(F)Oc1ccc(Nc2nc3c(Br)cccc3n3ccnc23)cc1Cl [Compound 50] | 18.5
15 | Fc1ccc2nc(Nc3ccc(OC(F)(F)F)cc3)c3nccn3c2c1Cl [Compound B17, 9-chloro-8-fluoro-N-(4-(trifluoromethoxy)phenyl)imidazolo [1,2-a]quinoxalin-4-amine] | 31.9
16 | FC1(F)Oc2ccc(Nc3nc4c(Cl)cccc4n4ccnc34)cc2C1(F)F [Compound 40, 6-Chloro-N-(2,2,3,3-tetrafluoro-2,3-dihydrobenzofuran-5-yl) imidazolo [1,2-a] quinoxalin-4-amine] | 17.5
17 | Fc1cccc2nc(Nc3ccc4c(c3)OC(F)(F)O4)c3nccn3c12 [Compound B75, 9-fluoro-N-(2,2-difluorobenzo[d] [1,3]dihydroxy-5-yl) imidazolo[1,2-a] quinoxalin-4-amine] | 29.5
18 | Fc1cc(NC2=Nc3cc(Cl)cc(Cl)c3N3CCN=C23)ccc1C(F)(F)F [Compound B140, 7,9-dichloro-N-(3-fluoro-4-(trifluoromethyl)phenyl)-1,2-dihydroimidazo[1,2-a] quinoxalin-4-amine] | 38.4
19 | Fc1cc(NC2=Nc3cc(Cl)cc(F)c3N3CCN=C23)ccc1OC(F)(F)F [Compound B131, 7-chloro-9-fluoro-N-(3-fluoro-4-(trifluoromethoxy)phenyl)-1,2-dihydroimidazo[1,2-a] quinoxalin-4-amine] | 27
